How the values were obtained:
db/db MSC [1] = assay: Response of db/db MSC to adipogenic medium (Oil Red O staining); type: cell-based, mouse
Method: Adipocytes were identified by Oil Red O staining. m±sd, n=5, *p<0.05.
Adipocytes were identified by Oil Red O staining. m±sd, n=4, *p<0.05 vs control. […] Endothelial cells were identified by CD31 staining. m±sd, n=4, *p<0.05 vs control, #p<0.05 vs 5 nM.

db/db MSC [2] = assay: Oxidative/nitrative stress in db/db MSC (DCF-DA staining, nitrotyrosine); type: cell-based, mouse; conditions: db/db MSC in vitro
Text: Data are expressed as % positive DCF-DA cells/hpf. m±sd, n=5, *p<0.05. […] The db/db MSC expressed a greater oxidative/nitrative stress than WT MSC. […] In summary, in vitro, db/db MSC show greater oxidative nitrostive stress than WT MSCs and this phenotype can be reversed by N-acetylcysteine (NAC).

[3] = test system: bone marrow mononuclear cell population; assay: Lymphocyte lineage specification: pre-B and pro-T cells in bone marrow; parameters: species or system mouse; conditions: ApoE^−/− mice, in vivo treatment
Method: (§1) Cells were stained with monoclonal antibodies conjugated to various fluoroprobes. These antibodies included: Notch1, cKit (2B8), Sca-1 (E13-161.7), CD4 (L3T4), CD8 (53-6.72), CD90.1, CD25, CD44, TCRβ, NK1.1, γδTCR, CD45.1, CD45.2. The lineage cocktail consisted of CD4, CD8, B220 (RA3-6B2), TER-119, Mac-1 (MI/70), and Gr-1 (RB6-8C5). All antibodies were purchased from BD Bioscience (San Diego, Calif.). FACS analysis was carried out on a FACS Diva.
Hypercholesterolemia is associated with lymphocytosis, while induction of hypercholesterolemia in monkeys affects the rate of CD11b monocyte differentiation. […] FIGS. 46A-46C show lymphocyte lineage specification is altered in hypercholesterolemic mice. (A) The percentages of pre-B cells and pro-T cells in the bone marrow mononuclear cell population were lower and higher, respectively, in ApoE^−/− than in WT mice. These changes were reversed by in vivo treatment of ApoE mice with NAC. (B) The percentages of pre-B cells and pro-T cells in the bone marrow mononuclear cell population were lower and higher, respectively, in HCD than in WT mice. (C) The percentage of mature B cells was lower and that of mature T cells higher in the peripheral blood mononuclear cell population from ApoE mice than from WT mice. The percentage of NKT cells was also less in ApoE mice.

p38 MAPK = assay: Phosphorylated (activated) p38 MAPK expression in HSCs; type: in vivo, mouse
Text: Activation of p38 MAPK by ROS has been reported in Atm^−/− mice and this event participates in ROS-induced loss of HSC quiescence. Expression of p38 MAPK was similar in HSCs from ApoE^−/−, HCD, and WT mice. However, expression of activated (phosphorylated) p38 MAPK is greater in HSCs from hypercholesterolemic mice than from WT mice (FIGS. 44A and 44B). FIGS. 44A-44C show p38 MAPK activation is greater in HSC from hypercholesterolemic mice. […] Neither treatment affected the outcome of competitive transplant with WT HSCs. m±sd, n=5 mice per group, *p<0.05 vs. WT, † p<0.05 vs. ApoE.

Notch1 = Notch1 expression in HSCs and lymphoid progenitors (Example 5); type: in vivo, mouse
Method: as §1
The Notch family is an evolutionarily conserved system of receptors and ligands that play a fundamental role in regulating cell-fate decision in many types of stem and progenitor cells, including HSCs. Notch1 plays a critical role in lymphocyte differentiation, wherein expression of Notch1 favors T cell differentiation. To clarify the effects of hypercholesterolemia on the expression Notch family, the expression of Notch family was screened in HSCs isolated from WT and ApoE^−/− mice. The percentage of HSCs expressing of Notch1 was higher in hypercholesterolemic than WT mice, whereas no differences in Notch2, Notch4, or Delta-like-1 were noted among groups (FIG. 47A). FIGS. 47A-47D show notch 1 expression is greater in HSCs from hypercholesterolemic mice. […] (B) Within the HSC population, a higher percentage of long term-HSCs expressed Notch1 than did short term-HSCs. This difference was evident in both WT and ApoE^−/− mice, although the percentage of short term-HSCs expressing Notch1 was twofold higher in ApoE^−/− than WT mice. […] (D) Treatment of ApoE^−/−, but not WT mice with SB203580 reduced the percentage of HSCs expressing Notch1. m±sd, n=5, *p<0.05 vs. WT, †p<0.05 vs. ApoE or HCD, p<0.05 vs. long-term HSCs.

[4] = ApoE^−/− mice, in vivo treatment

CC(=O)N[C@@H](CS)C(=O)O [NAC, N-acetylcysteine]
differentiation towards adipocytes (db/db MSC [1]): reduced adipogenesis
oxidative/nitrative stress (DCF-DA staining, nitrotyrosine accumulation) (db/db MSC [2]): significantly reduced the presence of oxidative/nitrative stress
percentages of pre-B cells and pro-T cells in bone marrow [3]: reversed these effects
expression of activated p38 in HSCs (p38 MAPK; [4]): significantly reduced expression of activated p38 in ApoE^−/− HSCs
expression of activated p38 in HSCs (p38 MAPK; WT mice): had no effect on activated p38 expression in WT HSCs
percentages of pre-B cells and pro-T cells expressing Notch1 (Notch1; [4]): these effects were reversed by in vivo treatment with NAC
percentage of HSCs expressing Notch1 (Notch1; WT mice): no effect was noted in WT mice
percentage of HSCs expressing Notch1 (Notch1; hypercholesterolemic mice (ApoE^−/−, HCD), in vivo treatment): significantly reduced the percentage of ApoE^−/− and HCD HSCs expressing Notch1

— patent publication US11090305B2, “Methods and compositions to reduce oxidative stress” (University of Massachusetts, priority 2009, dated 2021)
